{
  "source": "ChEMBL document CHEMBL6103589",
  "about": "“Synthesis and evaluation of novel ebselen derivatives as urease inhibitors for combating Helicobacter pylori infections” (Eur J Med Chem, 2025)",
  "key": {"[1]": {"test": "Acute toxicity in BALB/c mouse assessed as change in stool color at 1 g/Kg, po single dose administered for 7 days", "format": "organism-based", "settings": "in vivo, 1000 mg/kg, 168 h, time 7 day"}, "Helicobacter pylori [2]": {"system": "Helicobacter pylori", "test": "Protection against Helicobacter pylori ATCC 43504 infected (MOI 300:1) in human GES1 cell injury model assessed as necrotic cells at 25 uM pre-treated for 2 hrs followed by bacterial infection measured after 6 hrs by Annexin/V-FITC staining based flow cytometry analysis (reference value: 6.05%)", "format": "functional", "settings": "time 8 hrs"}, "Helicobacter pylori [3]": {"system": "Helicobacter pylori", "test": "Protection against Helicobacter pylori ATCC 43504 infected (MOI 25:1) in human GES1 cell injury model assessed as viable cells at 50 uM pre-treated for 2 hrs followed by bacterial infection measured after 6 hrs by Annexin/V-FITC staining based flow cytometry analysis (reference value: 89.14%)", "format": "functional", "settings": "time 8 hrs"}, "Helicobacter pylori [4]": {"system": "Helicobacter pylori", "test": "In vivo protection against Helicobacter pylori ATCC 43504 infected in BALB/c mouse gastric mucosa model assessed as effect on infiltration at high dose administered once a day for 2 weeks by HE staining based analysis", "format": "functional, organism-based"}, "Helicobacter pylori [5]": {"system": "Helicobacter pylori", "test": "Protection against Helicobacter pylori ATCC 43504 infected (MOI 25:1) in human GES1 cell injury model assessed as viable cells at 25 uM pre-treated for 2 hrs measured after 6 hrs by Annexin/V-FITC staining based flow cytometry analysis (reference value: 89.14%)", "format": "functional", "settings": "time 8 hrs"}, "Helicobacter pylori [6]": {"system": "Helicobacter pylori", "test": "Protection against Helicobacter pylori ATCC 43504 infected (MOI 25:1) in human GES1 cell injury model assessed as early apoptotic cells at 25 uM pre-treated for 2 hrs followed by bacterial infection measured after 6 hrs by Annexin/V-FITC staining based flow cytometry analysis (reference value: 9.89%)", "format": "functional", "settings": "time 8 hrs"}, "Helicobacter pylori [7]": {"system": "Helicobacter pylori", "test": "Protection against Helicobacter pylori ATCC 43504 infected (MOI 200:1) in human GES1 cell injury model assessed as late apoptotic cells at 50 uM pre-treated for 2 hrs followed by bacterial infection measured after 6 hrs by Annexin/V-FITC staining based flow cytometry analysis (reference value: 6.28%)", "format": "functional", "settings": "time 8 hrs"}, "Helicobacter pylori [8]": {"system": "Helicobacter pylori", "test": "Protection against Helicobacter pylori ATCC 43504 infected (MOI 25:1) in human GES1 cell injury model assessed as necrotic cells at 50 uM pre-treated for 2 hrs measured after 6 hrs by Annexin/V-FITC staining based flow cytometry analysis (reference value: 0.66%)", "format": "functional", "settings": "time 8 hrs"}, "[9]": {"test": "Acute toxicity in BALB/c mouse assessed as pathological abnormality in heart at 1 g/Kg, po single dose administered for 7 days by HE staining based analysis", "format": "organism-based", "settings": "in vivo, 1000 mg/kg, 168 h, time 7 day"}, "Helicobacter pylori [10]": {"system": "Helicobacter pylori", "test": "In vivo protection against Helicobacter pylori ATCC 43504 infected in BALB/c mouse gastric mucosa model assessed as effect on hyperplasia at high dose administered once a day for 2 weeks by HE staining based analysis", "format": "functional, organism-based"}, "Helicobacter pylori [11]": {"system": "Helicobacter pylori", "test": "In vivo protection against Helicobacter pylori ATCC 43504 infected in BALB/c mouse gastric mucosa model assessed as effect on pathological lesion at low dose administered once a day for 2 weeks by HE staining based analysis", "format": "functional, organism-based"}, "Helicobacter pylori [12]": {"system": "Helicobacter pylori", "test": "Protection against Helicobacter pylori ATCC 43504 infected (MOI 400:1) in human GES1 cell injury model assessed as viable cells at 50 uM pre-treated for 2 hrs followed by bacterial infection measured after 6 hrs by Annexin/V-FITC staining based flow cytometry analysis (reference value: 37.61%)", "format": "functional", "settings": "time 8 hrs"}, "Helicobacter pylori [13]": {"system": "Helicobacter pylori", "test": "Protection against Helicobacter pylori ATCC 43504 infected (MOI 25:1) in human GES1 cell injury model assessed as late apoptotic cells at 50 uM pre-treated for 2 hrs measured after 6 hrs by Annexin/V-FITC staining based flow cytometry analysis (reference value: 0.31%)", "format": "functional", "settings": "time 8 hrs"}, "Helicobacter pylori [14]": {"system": "Helicobacter pylori", "test": "Protection against Helicobacter pylori ATCC 43504 infected (MOI 200:1) in human GES1 cell injury model assessed as viable cells at 25 uM pre-treated for 2 hrs followed by bacterial infection measured after 6 hrs by Annexin/V-FITC staining based flow cytometry analysis (reference value: 57.87%)", "format": "functional", "settings": "time 8 hrs"}, "Helicobacter pylori [15]": {"system": "Helicobacter pylori", "test": "Protection against Helicobacter pylori ATCC 43504 infected (MOI 300:1) in human GES1 cell injury model assessed as viable cells at 50 uM pre-treated for 2 hrs followed by bacterial infection measured after 6 hrs by Annexin/V-FITC staining based flow cytometry analysis (reference value: 47.43%)", "format": "functional", "settings": "time 8 hrs"}, "Helicobacter pylori [16]": {"system": "Helicobacter pylori", "test": "Protection against Helicobacter pylori ATCC 43504 infected (MOI 100:1) in human GES1 cell injury model assessed as early apoptotic cells at 50 uM pre-treated for 2 hrs followed by bacterial infection measured after 6 hrs by Annexin/V-FITC staining based flow cytometry analysis (reference value: 24.66 %)", "format": "functional", "settings": "time 8 hrs"}, "Helicobacter pylori [17]": {"system": "Helicobacter pylori", "test": "Protection against Helicobacter pylori ATCC 43504 infected (MOI 100:1) in human GES1 cell injury model assessed as late apoptotic cells at 25 uM pre-treated for 2 hrs followed by bacterial infection measured after 6 hrs by Annexin/V-FITC staining based flow cytometry analysis (reference value: 4.16%)", "format": "functional", "settings": "time 8 hrs"}, "Helicobacter pylori [18]": {"system": "Helicobacter pylori", "test": "Protection against Helicobacter pylori ATCC 43504 infected (MOI 300:1) in human GES1 cell injury model assessed as late apoptotic cells at 25 uM pre-treated for 2 hrs followed by bacterial infection measured after 6 hrs by Annexin/V-FITC staining based flow cytometry analysis (reference value: 11.95%)", "format": "functional", "settings": "time 8 hrs"}, "[19]": {"test": "Stability of the compound in simulated gastric fluid", "format": "physicochemical", "settings": "simulated gi fluid"}, "Helicobacter pylori [20]": {"system": "Helicobacter pylori", "test": "Protection against Helicobacter pylori ATCC 43504 infected (MOI 25:1) in human GES1 cell injury model assessed as late apoptotic cells at 25 uM pre-treated for 2 hrs followed by bacterial infection measured after 6 hrs by Annexin/V-FITC staining based flow cytometry analysis (reference value: 0.31%)", "format": "functional", "settings": "time 8 hrs"}, "Helicobacter pylori [21]": {"system": "Helicobacter pylori", "test": "In vivo protection against Helicobacter pylori ATCC 43504 infected in BALB/c mouse gastric mucosa model assessed as effect on inflammatory cell infiltration at low dose administered once a day for 2 weeks by HE staining based analysis", "format": "functional, organism-based"}, "Helicobacter pylori [22]": {"system": "Helicobacter pylori", "test": "Protection against Helicobacter pylori ATCC 43504 infected (MOI 100:1) in human GES1 cell injury model assessed as viable cells at 50 uM pre-treated for 2 hrs followed by bacterial infection measured after 6 hrs by Annexin/V-FITC staining based flow cytometry analysis (reference value: 68.36%)", "format": "functional", "settings": "time 8 hrs"}, "GES1": {"system": "GES1", "test": "Induction of DNA damage in human GES1 cells infected (25 to 400:1 MOI) with Helicobacter pylori ATCC 43504 assessed as decrease in gammaH2AX levels by measuring fluorescence intensity at 25 to 50 uM by SP8 laser confocal microscopic analysis", "format": "functional, cell-based", "settings": "dose 25-50 µM"}, "Helicobacter pylori [23]": {"system": "Helicobacter pylori", "test": "Protection against Helicobacter pylori ATCC 43504 infected (MOI 50:1) in human GES1 cell injury model assessed as early apoptotic cells at 50 uM pre-treated for 2 hrs followed by bacterial infection measured after 6 hrs by Annexin/V-FITC staining based flow cytometry analysis (reference value: 13.16 %)", "format": "functional", "settings": "time 8 hrs"}, "Helicobacter pylori [24]": {"system": "Helicobacter pylori", "test": "Protection against Helicobacter pylori ATCC 43504 infected (MOI 200:1) in human GES1 cell injury model assessed as early apoptotic cells at 25 uM pre-treated for 2 hrs followed by bacterial infection measured after 6 hrs by Annexin/V-FITC staining based flow cytometry analysis (reference value: 31.93 %)", "format": "functional", "settings": "time 8 hrs"}, "Helicobacter pylori [25]": {"system": "Helicobacter pylori", "test": "In vivo protection against Helicobacter pylori ATCC 43504 infected in BALB/c mouse gastric mucosa model assessed as appearance of intact tissue structure at 25 mg/kg administered once a day for 2 weeks by HE staining based analysis", "format": "functional, organism-based"}},
  "note": "Calls of active or inactive are those of the source. No cut-off for these calls is given here.",
  "data": [
    {"smiles": "O=C(Oc1n[se]c2ccccc12)c1cccc(F)c1", "values": [
      {"measurement": "Activity", "setting": "[1]", "value": "Non-toxic"},
      {"measurement": "Activity", "setting": "Helicobacter pylori [2]", "value": 0.31, "unit": "%"},
      {"measurement": "Activity", "setting": "Helicobacter pylori [3]", "value": 99.06, "unit": "%"},
      {"measurement": "Activity", "setting": "Helicobacter pylori [4]", "value": "Active"},
      {"measurement": "Activity", "setting": "Helicobacter pylori [5]", "value": 98.45, "unit": "%"},
      {"measurement": "Activity", "setting": "Helicobacter pylori [6]", "value": 1.51, "unit": "%"},
      {"measurement": "Activity", "setting": "Helicobacter pylori [7]", "value": 0.21, "unit": "%"},
      {"measurement": "Activity", "setting": "Helicobacter pylori [8]", "value": 0.43, "unit": "%"},
      {"measurement": "Activity", "setting": "[9]", "value": "Non-toxic"},
      {"measurement": "Activity", "setting": "Helicobacter pylori [10]", "value": "inactive"},
      {"measurement": "Activity", "setting": "Helicobacter pylori [11]", "value": "inactive"},
      {"measurement": "Activity", "setting": "Helicobacter pylori [12]", "value": 89.4, "unit": "%"},
      {"measurement": "Activity", "setting": "Helicobacter pylori [13]", "value": 0, "unit": "%"},
      {"measurement": "Activity", "setting": "Helicobacter pylori [14]", "value": 87.8, "unit": "%"},
      {"measurement": "Activity", "setting": "Helicobacter pylori [15]", "value": 92.33, "unit": "%"},
      {"measurement": "Activity", "setting": "Helicobacter pylori [16]", "value": 2.79, "unit": "%"},
      {"measurement": "Activity", "setting": "Helicobacter pylori [17]", "value": 0.17, "unit": "%"},
      {"measurement": "Activity", "setting": "Helicobacter pylori [18]", "value": 0.02, "unit": "%"},
      {"measurement": "Stability", "setting": "[19]", "value": "Stable"},
      {"measurement": "Activity", "setting": "Helicobacter pylori [20]", "value": 0.02, "unit": "%"},
      {"measurement": "Activity", "setting": "Helicobacter pylori [21]", "value": "Active"},
      {"measurement": "Activity", "setting": "Helicobacter pylori [22]", "value": 96.82, "unit": "%"},
      {"measurement": "Activity", "setting": "GES1", "value": "Active"},
      {"measurement": "Activity", "setting": "Helicobacter pylori [23]", "value": 2.91, "unit": "%"},
      {"measurement": "Activity", "setting": "Helicobacter pylori [24]", "value": 12.06, "unit": "%"},
      {"measurement": "Activity", "setting": "Helicobacter pylori [25]", "value": "Active"}
    ]}
  ]
}
